Values of other authors in article PMC7155743 (The journal of physical chemistry. B, 2019).
“Also recorded” adds a separate entry of the source.

Experiments:
[1] = aqueous solution
[2] = not given; remark: listed apart in the source

Substance	aggregation state by DOSY [1]	appearance of peptide in water at 1 mg/mL	fibrillization after incubation in water for 3 h ([2]; water, 3 h)	solubility (qualitative) [2]
D2Q10K2 [DQ10]	predominately monomeric; also recorded: predominantly monomeric	clear solutions	–	–
D2Q10K2 [NDQ10]	predominately monomeric; also recorded: predominantly monomeric	clear solutions	–	–
K2Q9PGQ4AQ4PGQ9PGQ9K2 [NDPGQ9A]	–	–	do not observe signs of NDPGQ9A fibrillization	–
K2Q9PGQ4AQ4PGQ9PGQ9K2 [PGQ9A]	–	–	–	insoluble
